Test results: ChEMBL document CHEMBL4118194, “Molecular modeling, synthesis, antibacterial and cytotoxicity evaluation of sulfonamide derivatives of benzimidazole, indazole, benzothiazole and thiazole” (Bioorg Med Chem, 2018)
In brackets after ≈: the same amount, converted by molar mass.

Tests used:
[1] = tested on: Bacillus cereus; assay: Antibacterial activity against Bacillus cereus NCIM 2156 after 24 hrs by broth micro dilution method; type: functional; conditions: NCIM 2156, 24 h
[2] = tested on: Staphylococcus aureus; assay: Antibacterial activity against Staphylococcus aureus NCIM 2079 after 24 hrs by broth micro dilution method; type: functional; conditions: NCIM 2079, 24 h
[3] = tested on: Escherichia coli; assay: Antibacterial activity against wild type Escherichia coli NCIM 2065 after 24 hrs by broth micro dilution method; type: functional; conditions: NCIM 2065, 24 h
[4] = tested on: Pseudomonas aeruginosa; assay: Antibacterial activity against Pseudomonas aeruginosa NCIM 2036 after 24 hrs by broth micro dilution method; type: functional; conditions: NCIM 2036, 24 h
[5] = tested on: Escherichia coli; assay: Antibacterial activity against Escherichia coli U-621 mutant after 24 hrs by broth micro dilution method; type: functional; conditions: U-621, 24 h
[6] = tested on: PBMC; assay: Cytotoxicity against human PBMC assessed as decrease in cell viability after 5 days by MTT assay; type: cell-based; conditions: 120 h
[7] = tested on: CCRF-CEM; assay: Cytotoxicity against human CEM cells assessed as decrease in cell viability after 5 days by MTT assay; type: cell-based; conditions: 120 h
[8] = tested on: Vero; assay: Cytotoxicity against African green monkey Vero cells assessed as decrease in cell viability after 3 days by MTT assay; type: cell-based; conditions: Chlorocebus sabaeus, 72 h
[9] = tested on: Escherichia coli; assay: Potency index, ratio of sulfamethoxazole MIC to compound MIC for Escherichia coli U-621 mutant; type: functional
[10] = tested on: Escherichia coli; assay: Potency index, ratio of […] MIC to compound MIC for Escherichia coli U-621 mutant; type: functional
[11] = tested on: Pseudomonas aeruginosa; assay: Synergistic antibacterial activity against Pseudomonas aeruginosa NCIM 2036 at 0.37 to 50 ug/ml after 24 hrs in presence of […] sulfamethoxazole by broth micro dilution method; type: functional; conditions: NCIM 2036, 24 h
[12] = tested on: Pseudomonas aeruginosa; assay: Synergistic antibacterial activity against Pseudomonas aeruginosa NCIM 2036 assessed as fractional inhibitory concentration at 0.37 to 50 ug/ml after 24 hrs in presence of […] sulfamethoxazole by broth micro dilution method; type: functional
[13] = tested on: Escherichia coli; assay: Synergistic antibacterial activity against wild type Escherichia coli NCIM 2065 at 0.5 times MIC after 24 hrs in presence of 0.0976 to […] chloramphenicol by broth micro dilution method; type: functional; conditions: NCIM 2065, 24 h
[14] = tested on: Pseudomonas aeruginosa; assay: Synergistic antibacterial activity against Pseudomonas aeruginosa NCIM 2036 at 0.5 times MIC after 24 hrs in presence of 0.0976 to […] chloramphenicol by broth micro dilution method; type: functional; conditions: NCIM 2036, 24 h
[15] = tested on: Escherichia coli; assay: Synergistic antibacterial activity against wild type Escherichia coli NCIM 2065 assessed as fractional inhibitory concentration at 0.5 times MIC after 24 hrs in presence of 0.0976 to […] chloramphenicol by broth micro dilution method; type: functional
[16] = tested on: Pseudomonas aeruginosa; assay: Synergistic antibacterial activity against Pseudomonas aeruginosa NCIM 2036 assessed as fractional inhibitory concentration at 0.5 times MIC after 24 hrs in presence of 0.0976 to […] chloramphenicol by broth micro dilution method; type: functional
[17] = tested on: Escherichia coli; assay: Synergistic antibacterial activity against wild type Escherichia coli NCIM 2065 at 0.5 times MIC after 24 hrs in presence of 0.0976 to […] sulfamethoxazole by broth micro dilution method; type: functional; conditions: NCIM 2065, 24 h
[18] = tested on: Escherichia coli; assay: Synergistic antibacterial activity against wild type Escherichia coli NCIM 2065 assessed as fractional inhibitory concentration at 0.5 times MIC after 24 hrs in presence of 0.0976 to […] sulfamethoxazole by broth micro dilution method; type: functional
[19] = tested on: Pseudomonas aeruginosa; assay: Synergistic antibacterial activity against Pseudomonas aeruginosa NCIM 2036 at 0.5 times MIC after 24 hrs in presence of 0.0976 to […] chloramphenicol by broth micro dilution method relative to compound alone; type: functional
[20] = tested on: Escherichia coli; assay: Potency index, ratio of sulfamethoxazole MIC to compound MIC for wild type Escherichia coli NCIM 2065; type: functional
[21] = tested on: Bacillus cereus; assay: Synergistic antibacterial activity against Bacillus cereus NCIM 2156 at 0.37 to 50 ug/ml after 24 hrs in presence of […] chloramphenicol by broth micro dilution method; type: functional; conditions: NCIM 2156, 24 h
[22] = tested on: Staphylococcus aureus; assay: Synergistic antibacterial activity against Staphylococcus aureus NCIM 2079 at 0.37 to 50 ug/ml after 24 hrs in presence of […] chloramphenicol by broth micro dilution method; type: functional; conditions: NCIM 2079, 24 h
[23] = tested on: Pseudomonas aeruginosa; assay: Synergistic antibacterial activity against Pseudomonas aeruginosa NCIM 2036 at 0.37 to 50 ug/ml after 24 hrs in presence of […] chloramphenicol by broth micro dilution method; type: functional; conditions: NCIM 2036, 24 h
[24] = tested on: Bacillus cereus; assay: Synergistic antibacterial activity against Bacillus cereus NCIM 2156 assessed as fractional inhibitory concentration at 0.37 to 50 ug/ml after 24 hrs in presence of […] chloramphenicol by broth micro dilution method; type: functional
[25] = tested on: Staphylococcus aureus; assay: Synergistic antibacterial activity against Staphylococcus aureus NCIM 2079 assessed as fractional inhibitory concentration at 0.37 to 50 ug/ml after 24 hrs in presence of […] chloramphenicol by broth micro dilution method; type: functional
[26] = tested on: Pseudomonas aeruginosa; assay: Synergistic antibacterial activity against Pseudomonas aeruginosa NCIM 2036 assessed as fractional inhibitory concentration at 0.37 to 50 ug/ml after 24 hrs in presence of […] chloramphenicol by broth micro dilution method; type: functional
[27] = tested on: Bacillus cereus; assay: Synergistic antibacterial activity against Bacillus cereus NCIM 2156 at 0.37 to 50 ug/ml after 24 hrs in presence of […] sulfamethoxazole by broth micro dilution method; type: functional; conditions: NCIM 2156, 24 h
[28] = tested on: Staphylococcus aureus; assay: Synergistic antibacterial activity against Staphylococcus aureus NCIM 2079 at 0.37 to 50 ug/ml after 24 hrs in presence of […] sulfamethoxazole by broth micro dilution method; type: functional; conditions: NCIM 2079, 24 h
[29] = tested on: Escherichia coli; assay: Synergistic antibacterial activity against wild type Escherichia coli NCIM 2065 at 0.37 to 50 ug/ml after 24 hrs in presence of […] sulfamethoxazole by broth micro dilution method; type: functional; conditions: NCIM 2065, 24 h
[30] = tested on: Bacillus cereus; assay: Synergistic antibacterial activity against Bacillus cereus NCIM 2156 assessed as fractional inhibitory concentration at 0.37 to 50 ug/ml after 24 hrs in presence of […] sulfamethoxazole by broth micro dilution method; type: functional
[31] = tested on: Staphylococcus aureus; assay: Synergistic antibacterial activity against Staphylococcus aureus NCIM 2079 assessed as fractional inhibitory concentration at 0.37 to 50 ug/ml after 24 hrs in presence of […] sulfamethoxazole by broth micro dilution method; type: functional
[32] = tested on: Escherichia coli; assay: Synergistic antibacterial activity against wild type Escherichia coli NCIM 2065 assessed as fractional inhibitory concentration at 0.37 to 50 ug/ml after 24 hrs in presence of […] sulfamethoxazole by broth micro dilution method; type: functional
[33] = tested on: Escherichia coli; assay: Potency index, ratio of chloramphenicol MIC to compound MIC for wild type Escherichia coli NCIM 2065; type: functional
[34] = tested on: Pseudomonas aeruginosa; assay: Potency index, ratio of chloramphenicol MIC to compound MIC for Pseudomonas aeruginosa NCIM 2036; type: functional
[35] = tested on: Pseudomonas aeruginosa; assay: Synergistic antibacterial activity against Pseudomonas aeruginosa NCIM 2036 at 0.5 times MIC after 24 hrs in presence of 0.0976 to […] sulfamethoxazole by broth micro dilution method; type: functional; conditions: NCIM 2036, 24 h
[36] = tested on: Pseudomonas aeruginosa; assay: Synergistic antibacterial activity against Pseudomonas aeruginosa NCIM 2036 assessed as fractional inhibitory concentration at 0.5 times MIC after 24 hrs in presence of 0.0976 to […] sulfamethoxazole by broth micro dilution method; type: functional

SMILES | MIC [1] | MIC [2] | MIC [3] | MIC [4] | MIC [5] | IC50 [6] | IC50 [7] | IC50 [8] | MIC [11] | FIC [12] | MIC [13] | FIC [15] | MIC [17] | FIC [18] | other results
O=S(=O)(Nc1nccs1)c1ccc(Cl)cc1 | 3.1 µg/mL (≈ 11.3 µM) | 6.2 µg/mL (≈ 22.6 µM) | 3.1 µg/mL (≈ 11.3 µM) | 6.2 µg/mL (≈ 22.6 µM) | 25 µg/mL (≈ 91 µM) | > 100 µM | > 100 µM | 6.2 µM | 1.5 µg/mL | 0.24 | 0.195 µg/mL | 0.06 | 0.195 µg/mL | 0.06 | Ratio [9]: 4; Ratio [10]: 4; MIC [14]: 0.195 µg/mL; FIC [16]: 0.03; fold change (FC) [19]: 32
Cc1ccc(S(=O)(=O)n2cnc3ccccc32)cc1 | 50 µg/mL (≈ 184 µM) | 25 µg/mL (≈ 91.8 µM) | 6.2 µg/mL (≈ 22.8 µM) | 25 µg/mL (≈ 91.8 µM) | 50 µg/mL (≈ 184 µM) | > 100 µM | ≥ 100 µM | > 100 µM | 6.2 µg/mL | 0.24 | 0.781 µg/mL | 0.12 |  |  | Ratio [20]: 2; MIC [21]: 12.5 µg/mL; MIC [22]: 12.5 µg/mL; MIC [23]: 6.2 µg/mL; FIC [24]: 0.25; FIC [25]: 0.5; FIC [26]: 0.24; MIC [27]: 6.2 µg/mL; MIC [28]: 6.2 µg/mL; MIC [29]: 3.1 µg/mL; FIC [30]: 0.24; FIC [31]: 0.49; FIC [32]: 0.5
O=S(=O)(c1ccc(Cl)cc1)n1cnc2ccccc21 | 25 µg/mL (≈ 85.4 µM) | 12.5 µg/mL (≈ 42.7 µM) | 3.1 µg/mL (≈ 10.6 µM) | 12.5 µg/mL (≈ 42.7 µM) | 50 µg/mL (≈ 171 µM) | > 100 µM | > 61.7 µM | > 100 µM | 3.1 µg/mL | 0.24 | 0.391 µg/mL | 0.12 | 0.0976 µg/mL | 0.03 | Ratio [33]: 2; MIC [21]: 6.2 µg/mL; MIC [22]: 3.1 µg/mL; MIC [23]: 3.1 µg/mL; FIC [24]: 0.24; FIC [25]: 0.24; FIC [26]: 0.24; MIC [27]: 6.2 µg/mL; MIC [28]: 3.1 µg/mL; FIC [30]: 0.24; FIC [31]: 0.12
O=C(N[C@H](CO)[C@H](O)c1ccc([N+](=O)[O-])cc1)C(Cl)Cl [CHLORAMPHENICOL] | 6.2 µg/mL (≈ 19.2 µM) | 6.2 µg/mL (≈ 19.2 µM) | 6.2 µg/mL (≈ 19.2 µM) | 6.2 µg/mL (≈ 19.2 µM) | 50 µg/mL (≈ 155 µM) |  |  |  |  |  |  |  |  |  | 
Cc1cc(NS(=O)(=O)c2ccc(N)cc2)no1 [SULFAMETHOXAZOLE] | 6.2 µg/mL (≈ 24.5 µM) | 6.2 µg/mL (≈ 24.5 µM) | 3.1 µg/mL (≈ 12.2 µM) | 3.1 µg/mL (≈ 12.2 µM) | 25 µg/mL (≈ 98.7 µM) |  |  |  |  |  |  |  |  |  | 
O=[N+]([O-])c1ccc(S(=O)(=O)n2ncc3cc([N+](=O)[O-])ccc32)cc1 | 6.2 µg/mL (≈ 17.8 µM) | 6.2 µg/mL (≈ 17.8 µM) | 3.1 µg/mL (≈ 8.9 µM) | 3.1 µg/mL (≈ 8.9 µM) | 12.5 µg/mL (≈ 35.9 µM) |  |  |  |  |  | 0.195 µg/mL | 0.06 | 0.0976 µg/mL | 0.03 | Ratio [33]: 2; Ratio [34]: 2; Ratio [9]: 4; Ratio [10]: 4; MIC [14]: 0.195 µg/mL; FIC [16]: 0.06; MIC [35]: 0.195 µg/mL; FIC [36]: 0.06
C[C@@H]1C[C@@H]([C@H](O)CC2CC(=O)NC(=O)C2)C(=O)[C@@H](C)C1 [CYCLOHEXIMIDE] | 12.5 µg/mL (≈ 44.4 µM) | 12.5 µg/mL (≈ 44.4 µM) | 12.5 µg/mL (≈ 44.4 µM) | 12.5 µg/mL (≈ 44.4 µM) | 50 µg/mL (≈ 178 µM) | 0.9 µM | 0.2 µM | 0.2 µM |  |  |  |  |  |  | 
